The values that follow come from ChEMBL document CHEMBL2029328, “Identification and structure-activity relationships of a novel series of estrogen receptor ligands based on 7-thiabicyclo[2.2.1]hept-2-ene-7-oxide” (J Med Chem, 2012).

Structures are written as SMILES.

One may read the EC50 as the concentration giving half of the maximal effect. Low values mean higher potency in that assay, high ones lower potency in that assay.

The target of test [1] is T1, Estrogen receptor beta (Homo sapiens, UniProt Q92731). Description: Displacement of [3H]estradiol from human ERbeta after 18 to 24 hrs. A general note: Displacement assays read how much labelled ligand stays bound in the presence of the test substance.
T1 sequence (Q92731 whole entry): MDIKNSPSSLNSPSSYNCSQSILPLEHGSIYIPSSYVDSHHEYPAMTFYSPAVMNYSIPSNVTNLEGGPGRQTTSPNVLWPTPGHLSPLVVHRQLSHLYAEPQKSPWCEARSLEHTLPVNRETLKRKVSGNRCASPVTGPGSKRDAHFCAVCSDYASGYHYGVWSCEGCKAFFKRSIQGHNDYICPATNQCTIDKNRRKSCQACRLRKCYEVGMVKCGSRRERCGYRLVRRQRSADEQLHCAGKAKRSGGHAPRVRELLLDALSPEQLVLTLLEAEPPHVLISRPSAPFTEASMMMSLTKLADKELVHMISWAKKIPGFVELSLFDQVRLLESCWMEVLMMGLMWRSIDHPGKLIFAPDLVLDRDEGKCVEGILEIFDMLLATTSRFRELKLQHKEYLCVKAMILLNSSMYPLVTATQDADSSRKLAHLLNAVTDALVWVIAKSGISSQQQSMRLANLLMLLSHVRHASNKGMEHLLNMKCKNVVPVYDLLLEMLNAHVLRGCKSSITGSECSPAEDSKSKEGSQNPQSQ
Test [2] concerns the target T1, Estrogen receptor beta. The test can be described thus: Agonist activity at human ERbeta expressed in HepG2 cells up to 10^-5 M after 24 hrs by luciferase reporter gene assay relative to E2. The format is functional, cell-based. In general terms: In a reporter assay the amount or activity of a reporter protein is the signal.
Test [3] deals with T2, Estrogen receptor (Homo sapiens) (UniProt P03372).
T2 sequence (whole entry): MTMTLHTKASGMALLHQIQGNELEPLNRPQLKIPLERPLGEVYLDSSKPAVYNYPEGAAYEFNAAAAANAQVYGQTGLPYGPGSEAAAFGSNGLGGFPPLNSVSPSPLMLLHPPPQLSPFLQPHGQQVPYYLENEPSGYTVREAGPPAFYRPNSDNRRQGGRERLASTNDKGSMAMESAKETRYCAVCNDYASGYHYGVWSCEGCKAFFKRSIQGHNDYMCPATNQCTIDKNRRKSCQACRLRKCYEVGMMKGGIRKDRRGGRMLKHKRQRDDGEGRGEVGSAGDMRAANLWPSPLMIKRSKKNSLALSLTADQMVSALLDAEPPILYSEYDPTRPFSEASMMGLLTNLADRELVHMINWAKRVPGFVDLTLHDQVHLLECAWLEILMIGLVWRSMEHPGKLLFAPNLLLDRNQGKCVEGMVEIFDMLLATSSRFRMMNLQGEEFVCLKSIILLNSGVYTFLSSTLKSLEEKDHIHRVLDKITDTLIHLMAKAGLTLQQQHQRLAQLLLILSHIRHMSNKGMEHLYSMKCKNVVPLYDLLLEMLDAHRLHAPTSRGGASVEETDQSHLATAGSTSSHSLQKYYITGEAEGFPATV
The test can be described thus: Displacement of [3H]estradiol from human ERalpha after 18 to 24 hrs.

The target of test [4] is T2, Estrogen receptor (Homo sapiens). Description: Agonist activity at human ERalpha expressed in HepG2 cells up to 10^-5 M after 24 hrs by luciferase reporter gene assay relative to E2. The format is functional, cell-based.
In another test the target is T3, Estrogen receptor (Homo sapiens, UniProt P03372).
T3 sequence (P03372 whole entry): T2 sequence (whole entry)

With `CCOC(=O)[C@@H]1[C@H](C(=O)OCC)[C@@H]2C(c3ccc(O)c(C)c3)=C(c3ccc(O)c(C)c3)[C@H]1[S+]2[O-]` (stereo partly drawn), the values for the RBA (on Estrogen receptor beta [1]; in test [3]) were 0.019% and 0.026%, respectively. For the same molecule, the Activity at Estrogen receptor beta [2] is 3.6%; in test [4] it was 22%.

Regarding `CCOC(=O)[C@@H]1[C@H](C(=O)OCC)[C@@H]2C(c3ccc(O)cc3)=C(c3ccc(O)cc3)[C@H]1[S+]2[O-]` (stereo partly drawn), the RBA on Estrogen receptor beta [1] was determined as 0.048%; in test [3], 0.022%. The Activity was 27% on Estrogen receptor beta [2] and 55% in test [4].

On Estrogen receptor, `O=C1[C@@H]2[C@H](C(=O)N1c1ccccc1)[C@@H]1C(c3ccc(O)cc3)=C(c3ccc(O)cc3)[C@H]2[S+]1[O-]` (mixture of isomers) gave an EC50 of 7100 nM. The values for the RBA (on Estrogen receptor beta [1]; in test [3]) were 0.013% and 0.017%, respectively. For the same molecule, the values for the Activity (at Estrogen receptor beta [2]; in test [4]) were 24% and 31%, respectively.

In the case of `Cc1cc(C2=C(c3ccc(O)c(C)c3)[C@H]3[C@H]4C(=O)N(c5ccccc5)C(=O)[C@H]4[C@@H]2[S+]3[O-])ccc1O` (mixture of isomers), the RBA on Estrogen receptor beta [1] was 0.007%; in test [3], 0.009%. Further, the results for the Activity (at Estrogen receptor beta [2]; in test [4]) were 3.4% and 29%, respectively.

On Estrogen receptor, `Cc1cc(C2=C(c3ccc(O)c(C)c3)[C@H]3[C@@H](S(=O)(=O)Oc4cccc5ccccc45)C[C@@H]2[S+]3[O-])ccc1O` (relative stereo) registered an EC50 of 770 nM. For the same molecule, the RBA on Estrogen receptor beta [1] was determined as 0.019%; in test [3], 0.236%. The results for the Activity (on Estrogen receptor beta [2]; in test [4]) were 10% and 42%, respectively.

Turning to `O=S(=O)(Oc1ccccc1)[C@H]1C[C@H]2C(c3ccc(O)cc3)=C(c3ccc(O)cc3)[C@@H]1[S+]2[O-]` (relative stereo), the EC50 at Estrogen receptor came to 670 nM. Besides, the figures for the RBA (at Estrogen receptor beta [1]; in test [3]) were 0.11% and 0.956%, respectively. The Activity was 3.4% on Estrogen receptor beta [2] and 85% in test [4].

`O=S(=O)(Oc1ccc(O)cc1)[C@H]1C[C@H]2C(c3ccc(O)cc3)=C(c3ccc(O)cc3)[C@@H]1[S+]2[O-]` (relative stereo): the EC50 at Estrogen receptor worked out at 1100 nM. Besides, the results for the RBA (on Estrogen receptor beta [1]; in test [3]) were 0.071% and 0.077%, respectively. Further, the Activity on Estrogen receptor beta [2] came out at 10%; in test [4] it was 48%.

`Cc1cc(O)ccc1C1=C(c2ccc(O)cc2C)[C@H]2[C@@H](S(=O)(=O)Oc3ccccc3)C[C@@H]1[S+]2[O-]` (relative stereo) gave an EC50 on Estrogen receptor of 0.14 nM. In addition, the RBA on Estrogen receptor beta [1] amounted to 0.348%; in test [3], 8.11%. The figures for the Activity (on Estrogen receptor beta [2]; in test [4]) were 66% and 62%, respectively.

`COc1ccc(OS(=O)(=O)[C@H]2C[C@H]3C(c4ccc(O)cc4C)=C(c4ccc(O)cc4C)[C@@H]2[S+]3[O-])cc1` (relative stereo) gave an EC50 at Estrogen receptor of 210 nM. Moreover, the RBA stood at 0.091% at Estrogen receptor beta [1] and 0.741% in test [3]. The figures for the Activity (at Estrogen receptor beta [2]; in test [4]) were 32% and 76%, respectively.

On Estrogen receptor, `Cc1cc(O)ccc1C1=C(c2ccc(O)cc2C)[C@H]2[C@@H](S(=O)(=O)Oc3ccccc3F)C[C@@H]1[S+]2[O-]` (relative stereo) showed an EC50 of 2.2 nM. Moreover, the RBA stood at 0.138% at Estrogen receptor beta [1] and 3.53% in test [3]. For the same molecule, the Activity at Estrogen receptor beta [2] was determined as 54%; in test [4], 56%.

Turning to `Cc1cc(O)ccc1C1=C(c2ccc(O)cc2C)[C@H]2[C@@H](S(=O)(=O)Oc3ccccc3Cl)C[C@@H]1[S+]2[O-]` (relative stereo), a half-maximal effect on Estrogen receptor (EC50) was put at 2.8 nM. Moreover, the RBA at Estrogen receptor beta [1] was determined as 0.227%; in test [3], 2.49%. Besides, the Activity at Estrogen receptor beta [2] is 46%; in test [4], 73%.

Molecule `Cc1cc(O)ccc1C1=C(c2ccc(O)cc2C)[C@H]2[C@@H](S(=O)(=O)Oc3ccccc3Br)C[C@@H]1[S+]2[O-]` (relative stereo) gave an EC50 at Estrogen receptor of 14 nM. Moreover, the RBA on Estrogen receptor beta [1] stood at 0.07%; in test [3], 2.21%. Further, the figures for the Activity (on Estrogen receptor beta [2]; in test [4]) were 21% and 67%, respectively.

Molecule `Cc1cc(O)ccc1C1=C(c2ccc(O)cc2C)[C@H]2[C@@H](S(=O)(=O)Oc3ccc(F)cc3)C[C@@H]1[S+]2[O-]` (relative stereo) came in with an EC50 at Estrogen receptor of 200 nM. Further, the RBA at Estrogen receptor beta [1] is 0.08%; in test [3], 2.18%. In addition, the Activity on Estrogen receptor beta [2] was 45%; in test [4], 74%.

Consider `Cc1cc(O)ccc1C1=C(c2ccc(O)cc2C)[C@H]2[C@@H](S(=O)(=O)Oc3ccc(Cl)cc3)C[C@@H]1[S+]2[O-]` (relative stereo), for which, on Estrogen receptor, a half-maximal response (EC50) required 110 nM. Besides, the RBA on Estrogen receptor beta [1] is 0.083%; in test [3], 2.13%. Further, the Activity at Estrogen receptor beta [2] came to 50%; in test [4], 67%.

In the case of `Cc1cc(O)ccc1C1=C(c2ccc(O)cc2C)[C@H]2[C@@H](S(=O)(=O)Oc3ccc(Br)cc3)C[C@@H]1[S+]2[O-]` (relative stereo), the EC50 at Estrogen receptor amounted to 110 nM. For the same molecule, the RBA at Estrogen receptor beta [1] was 0.297%; in test [3], 3.37%. The figures for the Activity (at Estrogen receptor beta [2]; in test [4]) were 100% and 71%, respectively.

As for `Cc1cc(O)ccc1C1=C(c2ccc(O)cc2C)[C@H]2[C@@H](S(=O)(=O)Oc3cccc4ccccc34)C[C@@H]1[S+]2[O-]` (relative stereo), the EC50 at Estrogen receptor is 27 nM. For the same molecule, the RBA on Estrogen receptor beta [1] amounted to 0.18%; in test [3], 0.998%. The Activity on Estrogen receptor beta [2] came to 83%; in test [4] it was 59%.

On Estrogen receptor, `Cc1cc(O)ccc1C1=C(c2ccc(O)cc2C)[C@H]2[C@@H](S(=O)(=O)Oc3ccc(O)cc3)C[C@@H]1[S+]2[O-]` (relative stereo) registered an EC50 of 9.2 nM. For the same molecule, the RBA on Estrogen receptor beta [1] stood at 0.812%; in test [3], 2.21%. Besides, the Activity on Estrogen receptor beta [2] was 82%; in test [4] it was 58%.

Take `Cc1cc(C2=C(c3ccc(O)c(C)c3)[C@H]3[C@@H](S(=O)(=O)Oc4ccccc4)C[C@@H]2[S+]3[O-])ccc1O` (relative stereo): the EC50 at Estrogen receptor was 12 nM. Moreover, the RBA at Estrogen receptor beta [1] is 0.014%; in test [3], 3.49%. Besides, the Activity was 3.8% on Estrogen receptor beta [2] and 65% in test [4].

`COc1ccc(OS(=O)(=O)[C@H]2C[C@H]3C(c4ccc(O)c(C)c4)=C(c4ccc(O)c(C)c4)[C@@H]2[S+]3[O-])cc1` (relative stereo) displayed an EC50 on Estrogen receptor of 11000 nM. The RBA at Estrogen receptor beta [1] came to 0.021%; in test [3], 0.31%. The Activity on Estrogen receptor beta [2] turned out to be 9.8%; in test [4], 57%.

Take `Cc1cc(C2=C(c3ccc(O)c(C)c3)[C@H]3[C@@H](S(=O)(=O)Oc4ccccc4F)C[C@@H]2[S+]3[O-])ccc1O` (relative stereo): the EC50 at Estrogen receptor amounted to 1300 nM. The RBA at Estrogen receptor beta [1] stood at 0.01%. The Activity at Estrogen receptor beta [2] stood at 0%; in test [4], 55%.

`Cc1cc(C2=C(c3ccc(O)c(C)c3)[C@H]3[C@@H](S(=O)(=O)Oc4ccccc4Cl)C[C@@H]2[S+]3[O-])ccc1O` (relative stereo) displayed an EC50 on Estrogen receptor of 2000 nM. The RBA at Estrogen receptor beta [1] was found to be 0.022%; in test [3] it was 1.18%. The Activity at Estrogen receptor beta [2] is 0%; in test [4] it was 72%.

Take `Cc1cc(C2=C(c3ccc(O)c(C)c3)[C@H]3[C@@H](S(=O)(=O)Oc4ccccc4Br)C[C@@H]2[S+]3[O-])ccc1O` (relative stereo): the EC50 at Estrogen receptor was found to be 1200 nM. For the same molecule, the figures for the RBA (at Estrogen receptor beta [1]; in test [3]) were 0.014% and 0.516%, respectively. Also, the Activity was 0% on Estrogen receptor beta [2] and 51% in test [4].

Consider `Cc1ccc(C2=C(c3ccc(C)cc3)[C@H]3[C@@H](S(=O)(=O)Oc4ccc(O)cc4)C[C@@H]2[S+]3[O-])cc1` (relative stereo), for which the EC50 on Estrogen receptor is 5500 nM. The values for the RBA (on Estrogen receptor beta [1]; in test [3]) were 0.011% and 0.005%, respectively. Moreover, the Activity was determined as 10% at Estrogen receptor beta [2] and 24% in test [4].

With `COc1ccc(OS(=O)(=O)[C@H]2C[C@H]3C(c4ccc(O)cc4)=C(c4ccc(O)cc4)[C@@H]2[S+]3[O-])cc1` (relative stereo), the RBA at Estrogen receptor beta [1] was 0.08%; in test [3], 0.074%. In addition, the Activity on Estrogen receptor beta [2] is 19%; in test [4], 48%.

Consider `Cc1cc(C2=C(c3ccc(O)c(C)c3)[C@H]3[C@@H](S(=O)(=O)Oc4ccc(O)cc4)C[C@@H]2[S+]3[O-])ccc1O` (relative stereo), for which the RBA on Estrogen receptor beta [1] came out at 0.009%; in test [3], 0.109%.

Consider `Cc1cc(O)ccc1C1=C(c2ccc(O)cc2C)[C@H]2[C@@H](S(=O)(=O)Oc3cccc(Cl)c3)C[C@@H]1[S+]2[O-]` (relative stereo), for which the RBA on Estrogen receptor beta [1] worked out at 0.088%; in test [3], 1.3%.

With `O=S(=O)(Oc1ccc(O)cc1)[C@H]1C[C@H]2C(c3ccccc3)=C(c3ccccc3)[C@@H]1[S+]2[O-]` (relative stereo), the RBA at Estrogen receptor beta [1] was 0.008%; in test [3] it was 0.005%. Also, the figures for the Activity (on Estrogen receptor beta [2]; in test [4]) were 0% and 22%, respectively.
